Assay [1] concerns the target GDP-bound KRAS protein (aa 1-169), containing both G12C and C118A amino acid substitutions (Homo sapiens, UniProt P01116, C118A/G12C). Description: Coupled nucleotide exchange assay (SOS-mediated, AlphaScreen). It is filed as biochemical. To be noted: 5 min compound pre-incubation. Background: In Alpha technology, singlet oxygen from a donor bead excites a nearby acceptor bead.

In assay [2] the test system is Phosphorylation of ERK1/2 in MIA PaCa-2 cells. Description: Phospho-ERK1/2 MSD assay in MIA PaCa-2 cells. Format: cell-based. To be noted: Homo sapiens, MIA PaCa-2, 2 h, read-out: p-ERK IC50 (2 h; MIA PaCa-2), 2 h compound treatment. The procedure, abridged:
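In the procedure, cells were plated a day ahead at 25,000 per well. Next, a dilution series of compound in growth medium was added for 2 or 4 h. EGF (10 ng/mL) stimulation for 10 min preceded washing and RIPA lysis. Lysate phospho-ERK1/2 was read by MSD, with IC50 derived by 4-parameter logistic analysis.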

Each structure is given as a SMILES string.

The IC50 is the concentration that inhibits the measured activity by half.

GDP-bound KRAS protein (aa 1-169), containing both G12C and C118A amino acid substitutions, sequence (P01116 1-169 isoform P01116-2 G12C/C118A): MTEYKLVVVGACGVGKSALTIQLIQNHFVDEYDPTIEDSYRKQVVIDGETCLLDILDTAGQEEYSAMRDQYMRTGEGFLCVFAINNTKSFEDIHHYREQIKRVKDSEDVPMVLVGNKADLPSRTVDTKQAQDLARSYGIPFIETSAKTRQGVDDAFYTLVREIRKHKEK

As for `C=CC(=O)N1CCN(c2nc(=O)n(-c3c(C)ccnc3C(C)C)c3nc(-c4cc(O)ccc4F)c(F)cc23)[C@@H](C)C1` [Example 58-5, 6-fluoro-7-(2-fluoro-5-hydroxyphenyl)-1-(4-methyl-2-(2-propanyl)-3-pyridinyl)-4-((2S)-2-methyl-4-(2-propenoyl)-1-piperazinyl)pyrido[2,3-d]pyrimidin-2(1H)-one], the “Coupled exchange IC50 (5 min)” value in assay [1] was 0.484 | nda μM. The 50% inhibitory concentration (IC50) in assay [2] worked out at 1990 nM.

On to `C=CC(=O)N1CCN(c2nc(=O)n(-c3c(C)ccnc3C(C)C)c3nc(-c4cc(N)ccc4F)c(F)cc23)[C@@H](C)C1` [Example 58-6], for which the “Coupled exchange IC50 (5 min)” value in assay [1] was 0.623 | nda μM. In addition, the IC50 in assay [2] was found to be 842 nM.

For the compound `C=CC(=O)N1CCN(c2nc(=O)n(-c3c(C)ccnc3C(C)C)c3nc(-c4cc(O)cc(Cl)c4Cl)c(F)cc23)[C@@H](C)C1` [Example 58-7, 7-(2,3-dichloro-5-hydroxyphenyl)-6-fluoro-1-(4-methyl-2-(2-propanyl)-3-pyridinyl)-4-((2S)-2-methyl-4-(2-propenoyl)-1-piperazinyl)pyrido[2,3-d]pyrimidin-2(1H)-one], in assay [1], the “Coupled exchange IC50 (5 min)” value is listed as 0.072 | nda μM. For the same compound, the IC50 in assay [2] was found to be 1990 nM.

Take `C=CC(=O)N1CCN(c2nc(=O)n(-c3c(C)ccnc3C(C)C)c3nc(-c4cc(N)ccc4Cl)c(F)cc23)[C@@H](C)C1` [Example 58-8, 7-(5-amino-2-chlorophenyl)-6-fluoro-1-(4-methyl-2-(2-propanyl)-3-pyridinyl)-4-((2S)-2-methyl-4-(2-propenoyl)-1-piperazinyl)pyrido[2,3-d]pyrimidin-2(1H)-one]: the “Coupled exchange IC50 (5 min)” value in assay [1] is recorded as 0.393 | nda μM. Further, the half-inhibitory concentration (IC50) in assay [2] was 437 nM.

For `C=CC(=O)N1CCN(c2nc(=O)n(-c3c(C)ccnc3C(C)C)c3nc(-c4c(O)cccc4Cl)c(F)cc23)[C@@H](C)C1` [Example 58-9, 7-(2-chloro-6-hydroxyphenyl)-6-fluoro-1-(4-methyl-2-(2-propanyl)-3-pyridinyl)-4-((2S)-2-methyl-4-(2-propenoyl)-1-piperazinyl)pyrido[2,3-d]pyrimidin-2(1H)-one], the “Coupled exchange IC50 (5 min)” value in assay [1] is 0.095 | nda μM. Besides, in assay [2], the IC50 was found to be 220 nM.

On to `C=CC(=O)N1CCN(c2nc(=O)n(-c3c(C)ccnc3C(C)C)c3nc(-c4ccc(F)cc4F)c(F)cc23)[C@@H](C)C1` [Example 58-10, 7-(2,4-difluorophenyl)-6-fluoro-1-(4-methyl-2-(2-propanyl)-3-pyridinyl)-4-((2S)-2-methyl-4-(2-propenoyl)-1-piperazinyl)pyrido[2,3-d]pyrimidin-2(1H)-one], for which, in assay [1], the “Coupled exchange IC50 (5 min)” value is listed as 0.445 | nda μM. Moreover, the IC50 in assay [2] was 433 nM.

Take `C=CC(=O)N1CCN(c2nc(=O)n(-c3c(C)ncnc3C(C)C)c3nc(-c4ccccc4F)c(F)cc23)[C@@H](C)C1` [Example 58-12, 6-fluoro-7-(2-fluorophenyl)-1-(4-methyl-6-(2-propanyl)-5-pyrimidinyl)-4-((2S)-2-methyl-4-(2-propenoyl)-1-piperazinyl)pyrido[2,3-d]pyrimidin-2(1H)-one]: in assay [1], the “Coupled exchange IC50 (5 min)” value is listed as 0.953 | nda μM. For the same compound, the IC50 in assay [2] turned out to be 508 nM.

For the compound `C=CC(=O)N1CCN(c2nc(=O)n(-c3c(C)cccc3C3CC3)c3nc(-c4c(O)cccc4F)c(F)cc23)[C@@H](C)C1` [Example 58-13, 1-(2-cyclopropyl-6-methylphenyl)-6-fluoro-7-(2-fluoro-6-hydroxyphenyl)-4-((2S)-2-methyl-4-(2-propenoyl)-1-piperazinyl)pyrido[2,3-d]pyrimidin-2(1H)-one], the “Coupled exchange IC50 (5 min)” value in assay [1] is listed as 0.809 | nda μM. In addition, in assay [2], the IC50 stood at 263 nM.

Regarding `C=CC(=O)N1CCN(c2nc(=O)n(-c3c(C(C)C)ccnc3C)c3nc(-c4ccccc4F)c(F)cc23)[C@@H](C)C1` [Example 58-16, 6-fluoro-7-(2-fluorophenyl)-1-(2-methyl-4-(2-propanyl)-3-pyridinyl)-4-((2S)-2-methyl-4-(2-propenoyl)-1-piperazinyl)pyrido[2,3-d]pyrimidin-2(1H)-one], the “Coupled exchange IC50 (5 min)” value in assay [1] is on record as 0.553 | nda μM. The 50% inhibitory concentration (IC50) in assay [2] was determined as 556 nM.

Regarding `C=CC(=O)N1CCN(c2nc(=O)n(-c3c(C4CC4)ccnc3C)c3nc(-c4c(O)cccc4F)c(F)cc23)[C@@H](C)C1` [Example 58-19, 1-(4-cyclopropyl-2-methyl-3-pyridinyl)-6-fluoro-7-(2-fluoro-6-hydroxyphenyl)-4-((2S)-2-methyl-4-(2-propenoyl)-1-piperazinyl)pyrido[2,3-d]pyrimidin-2(1H)-one], the “Coupled exchange IC50 (5 min)” value in assay [1] is 0.44 | nda μM. Further, the IC50 in assay [2] was found to be 957 nM.

`C=CC(=O)N1CCN(c2nc(=O)n(-c3c(CC)ncnc3CC)c3nc(-c4c(O)cccc4F)c(F)cc23)[C@@H](C)C1` [Example 58-23, 1-(4,6-diethyl-5-pyrimidinyl)-6-fluoro-7-(2-fluoro-6-hydroxyphenyl)-4-((2S)-2-methyl-4-(2-propenoyl)-1-piperazinyl)pyrido[2,3-d]pyrimidin-2(1H)-one]: in assay [1], the “Coupled exchange IC50 (5 min)” value is recorded as 0.732 | nda μM. The IC50 in assay [2] was found to be 894 nM.

On to `C=CC(=O)N1CCN(c2nc(=O)n(-c3c(F)cccc3C(C)C)c3nc(-c4c(O)cccc4F)c(F)cc23)[C@@H](C)C1` [Example 59-2, 6-fluoro-7-(2-fluoro-6-hydroxyphenyl)-1-(2-fluoro-6-(2-propanyl)phenyl)-4-((2S)-2-methyl-4-(2-propenoyl)-1-piperazinyl)pyrido[2,3-d]pyrimidin-2(1H)-one], for which the “Coupled exchange IC50 (5 min)” value in assay [1] is reported as 0.257 | nda μM. Also, the concentration for half-maximal inhibition (IC50) in assay [2] turned out to be 737 nM.

Consider `C=CC(=O)N1CCN(c2nc(=O)n(-c3c(F)cccc3C(C)C)c3nc(-c4ccccc4F)c(F)cc23)[C@@H](C)C1` [Example 59-3, 6-fluoro-7-(2-fluorophenyl)-1-(2-fluoro-6-(2-propanyl)phenyl)-4-((2S)-2-methyl-4-(2-propenoyl)-1-piperazinyl)pyrido[2,3-d]pyrimidin-2(1H)-one], for which the “Coupled exchange IC50 (5 min)” value in assay [1] is 0.521 | nda μM. Moreover, the IC50 in assay [2] came out at 619 nM.

Turning to `C=CC(=O)N1CCN(c2nc(=O)n(-c3c(C4CC4)ncnc3C3CC3)c3nc(-c4c(O)cccc4F)c(F)cc23)[C@@H](C)C1` [Example 59-4, 1-(4,6-dicyclopropyl-5-pyrimidinyl)-6-fluoro-7-(2-fluoro-6-hydroxyphenyl)-4-((2S)-2-methyl-4-(2-propenoyl)-1-piperazinyl)pyrido[2,3-d]pyrimidin-2(1H)-one], in assay [1], the “Coupled exchange IC50 (5 min)” value is given as 0.133 | nda μM. In assay [2], the IC50 turned out to be 163 nM.

For `C=CC(=O)N1CCN(c2nc(=O)n(-c3nccnc3C3CC3)c3nc(-c4c(O)cccc4F)c(F)cc23)[C@@H](C)C1` [Example 59-6, 1-(3-cyclopropyl-2-pyrazinyl)-6-fluoro-7-(2-fluoro-6-hydroxyphenyl)-4-((2S)-2-methyl-4-(2-propenoyl)-1-piperazinyl)pyrido[2,3-d]pyrimidin-2(1H)-one], the “Coupled exchange IC50 (5 min)” value in assay [1] is 0.932 | nda μM. In addition, the half-inhibitory concentration (IC50) in assay [2] stood at 659 nM.

As for `C=CC(=O)N1CCN(c2nc(=O)n(-c3ncccc3C3CC3)c3nc(-c4ccccc4F)c(Cl)cc23)[C@@H](C)C1` [Example 60-1, 6-Chloro-1-(3-cyclopropyl-2-pyridinyl)-7-(2-fluorophenyl)-4-((2S)-2-methyl-4-(2-propenoyl)-1-piperazinyl)pyrido[2,3-d]pyrimidin-2(1H)-one], the “Coupled exchange IC50 (5 min)” value in assay [1] is reported as 0.422 | nda μM. For the same compound, the half-inhibitory concentration (IC50) in assay [2] was 204 nM.

Regarding `C=CC(=O)N1CCN(c2nc(=O)n(C3CCC34CCCC4)c3nc(-c4c(O)cccc4F)c(Cl)cc23)[C@@H](C)C1` (stereo partly drawn) [Example 60-9, 6-chloro-7-(2-fluoro-6-hydroxyphenyl)-4-((2S)-2-methyl-4-(2-propenoyl)-1-piperazinyl)-1-(spiro[3.4]octan-1-yl)pyrido[2,3-d]pyrimidin-2(1H)-one], the “Coupled exchange IC50 (5 min)” value in assay [1] is 0.484 | nda μM. Further, in assay [2], the concentration for half-maximal inhibition (IC50) turned out to be 1600 nM.

In the case of `C=CC(=O)N1CCN(c2nc(=O)n(-c3nccnc3C3CC3)c3nc(-c4ccccc4F)c(Cl)cc23)[C@@H](C)C1` [Example 60-10, 6-chloro-1-(3-cyclopropyl-2-pyrazinyl)-7-(2-fluorophenyl)-4-((2S)-2-methyl-4-(2-propenoyl)-1-piperazinyl)pyrido[2,3-d]pyrimidin-2(1H)-one], the “Coupled exchange IC50 (5 min)” value in assay [1] was 0.328 | nda μM. In addition, the half-maximal inhibitory concentration (IC50) in assay [2] turned out to be 156 nM.

Regarding `C=CC(=O)N1CCN(c2nc(=O)n(-c3c(OC)cccc3C(C)C)c3nc(-c4ccccc4F)c(Cl)cc23)[C@@H](C)C1` [Example 60-19, 6-chloro-7-(2-fluorophenyl)-1-(2-methoxy-6-(2-propanyl)phenyl)-4-((2S)-2-methyl-4-(2-propenoyl)-1-piperazinyl)pyrido[2,3-d]pyrimidin-2(1H)-one], the “Coupled exchange IC50 (5 min)” value in assay [1] is listed as 0.137 | nda μM. The IC50 in assay [2] came out at 156 nM.

For the compound `C=CC(=O)N1CCN(c2nc(=O)n(-c3c(C#N)cccc3C(C)C)c3nc(-c4ccccc4F)c(Cl)cc23)[C@@H](C)C1` [Example 60-20, 2-(6-chloro-7-(2-fluorophenyl)-4-((2S)-2-methyl-4-(2-propenoyl)-1-piperazinyl)-2-oxopyrido[2,3-d]pyrimidin-1(2H)-yl)-3-(2-propanyl)benzonitrile], in assay [1], the “Coupled exchange IC50 (5 min)” value is on record as 0.053 | nda μM. For the same compound, the IC50 in assay [2] is 62 nM.

Regarding `C=CC(=O)N1CCN(c2nc(=O)n(-c3scnc3CC)c3nc(-c4ccccc4F)c(Cl)cc23)[C@@H](C)C1` [Example 60-21, 6-chloro-1-(4-ethyl-1,3-thiazol-5-yl)-7-(2-fluorophenyl)-4-((2S)-2-methyl-4-(2-propenoyl)-1-piperazinyl)pyrido[2,3-d]pyrimidin-2(1H)-one], in assay [1], the “Coupled exchange IC50 (5 min)” value is given as 0.35 | nda μM. Besides, the IC50 in assay [2] amounted to 334 nM.

Source of the values: patent publication US11090304B2 (Amgen Inc., priority 2018, dated 2021).
